Measurements reported in PMC10298626 (International Journal of Molecular Sciences, 2023).
Marks after values point to notes of the source that are not given here.

Tests used:
[1] = system: LPS-stimulated RAW264.7 cells; test: NO production (Griess reagent) in LPS-stimulated RAW264.7 cells; type: cell-based, Mouse; conditions: for NO production, Average / NO production, Average (μM): then LPS (500 ng/mL) 20 h, LPS alone 25.9, control 3.1; for Anti-inflammatory effect (inhibition of NO secretion), in words: 20, 40, and 80 μM, compared with LPS-only treatment
Experimental: A high concentration of NO promotes the synthesis of inflammatory mediators, leading to an inflammatory response, and has been reported to be a cause of various immune diseases. Therefore, this study was conducted to investigate the effect of coumarin derivatives on the production of NO induced by LPS stimulation in RAW264.7 cells. The cells were treated with coumarin derivatives at concentrations of 20, 40, and 80 μM for 2 h. Then, the cells were treated with LPS. After 20 h, the culture supernatant was recovered, and the amount of NO was measured. […] The anti-inflammatory activity of these derivatives depended on the position of the substituted group rather than the electron density of the substituted group.
The Griess reagent was used to measure NO production. RAW264.7 cells were seeded into a 96-well plate and cultured for 24 h. The cells were treated with 20, 40, and 80 μM of coumarin derivatives, cultured for 2 h, and then cultured with LPS (500 ng/mL) for 20 h. The same amount of cell supernatant and Griess reagent were used for the reaction, and absorbance was measured at 540 nm.

[2] = in vitro; type: cell-based; conditions: mouse, RAW264.7 cells, then LPS (500 ng/mL) 20 h, read-out: Cell viability, Average (%); for viability at 22 h, 20 μM: 20 μM for 2 h; for viability at 22 h, 40 μM: 40 μM for 2 h; for viability at 22 h, 80 μM: 80 μM for 2 h
Experimental: To investigate the anti-inflammatory activity of coumarin derivatives, cell viability was analyzed by treating RAW264.7 cells with 23 types of coumarin derivatives at concentrations of 20, 40, and 80 μM for 2 h and with LPS for 20 h.
Mouse macrophage RAW264.7 cells were purchased from the Korea Cell Line Bank (Seoul, Republic of Korea) and cultured in Dulbecco’s Modified Eagle Medium (Corning, NY, USA) containing 10% fetal bovine serum and 1% penicillin/streptomycin at 37 °C and 5% CO2. The medium was changed every 2 days and subcultured when the cells grew > 80%.
EZ-Cytox cell viability assay kit (Dogen, Suwon, Republic of Korea) was used to measure cell viability according to the manufacturer’s instructions. RAW264.7 cells were seeded into a 96-well plate (1 × 10^5 cells/well) and treated with coumarin derivatives at concentrations of 20, 40, and 80 μM. After 2 h, the cells were treated with LPS (500 ng/mL) and cultured for 24 h in a 37 °C, 5% CO2 incubator. The culture supernatant was treated with 10% EZ-Cytox reagent, and a microplate reader was used to measure the absorbance at 450 nm.

## N#CC1=C(N)Oc2c(c(=O)oc3ccccc23)C1c1ccccc1F (centres unmarked) [Coumarin derivative 1]
[1]; 20 μM for 2 h
  NO production, Average: 29.50 µM
[1]; 40 μM for 2 h
  NO production, Average: 29.82 µM
[1]; 80 μM for 2 h
  NO production, Average: 28.71 µM
[1]
  Anti-inflammatory effect (inhibition of NO secretion), in words: almost no anti-inflammatory effect
[2]
  viability at 22 h, 20 μM: 90.4%
  viability at 22 h, 40 μM: 96%
  viability at 22 h, 80 μM: 109%

## N#CC1=C(N)Oc2c(c(=O)oc3ccccc23)C1c1ccc(F)cc1 (centres unmarked) [Coumarin derivative 3]
[1]; 20 μM for 2 h
  NO production, Average: 27.60 µM
[1]; 40 μM for 2 h
  NO production, Average: 28.86 µM
[1]; 80 μM for 2 h
  NO production, Average: 22.84 µM
[2]
  viability at 22 h, 20 μM: 95.4%
  viability at 22 h, 40 μM: 101%
  viability at 22 h, 80 μM: 110%

## N#CC1=C(N)Oc2c(c(=O)oc3ccccc23)C1c1ccccc1C(F)(F)F (centres unmarked) [Coumarin derivative 4]
[1]; 20 μM for 2 h
  NO production, Average: 15.71 µM
[1]; 40 μM for 2 h
  NO production, Average (μM): 17.45 *** μM
[1]; 80 μM for 2 h
  NO production, Average (μM): 18.09 *** μM
[2]
  viability at 22 h, 20 μM: 79.9%
  viability at 22 h, 40 μM: 91.2%
  viability at 22 h, 80 μM: 88.7%

## N#CC1=C(N)Oc2c(c(=O)oc3ccccc23)C1c1cccc(C(F)(F)F)c1 (centres unmarked) [Coumarin derivative 5]
[1]; 20 μM for 2 h
  NO production, Average: 30.77 µM
[1]; 40 μM for 2 h
  NO production, Average: 28.71 µM
[1]; 80 μM for 2 h
  NO production, Average: 25.38 µM
[1]
  Anti-inflammatory effect (inhibition of NO secretion), in words: almost no anti-inflammatory effects
[2]
  viability at 22 h, 20 μM: 86.8%
  viability at 22 h, 40 μM: 110%
  viability at 22 h, 80 μM: 113%

## N#CC1=C(N)Oc2c(c(=O)oc3ccccc23)C1c1ccc(C(F)(F)F)cc1 (centres unmarked) [Coumarin derivative 6]
[1]; 20 μM for 2 h
  NO production, Average: 30.92 µM
[1]; 40 μM for 2 h
  NO production, Average: 26.49 µM
[1]; 80 μM for 2 h
  NO production, Average (μM): 16.82 *** μM
[1]
  Anti-inflammatory effect (inhibition of NO secretion), in words: weak anti-inflammatory effects at high concentrations
[2]
  viability at 22 h, 20 μM: 98.7%
  viability at 22 h, 40 μM: 111%
  viability at 22 h, 80 μM: 111%

## N#CC1=C(N)Oc2c(c(=O)oc3ccccc23)C1c1ccccc1Cl (centres unmarked) [Coumarin derivative 7]
[1]; 20 μM for 2 h
  NO production, Average: 32.83 µM
[1]; 40 μM for 2 h
  NO production, Average: 29.66 µM
[1]; 80 μM for 2 h
  NO production, Average: 27.60 µM
[2]
  viability at 22 h, 20 μM: 106%
  viability at 22 h, 40 μM: 121%
  viability at 22 h, 80 μM: 124%

## N#CC1=C(N)Oc2c(c(=O)oc3ccccc23)C1c1ccc(Cl)cc1 (centres unmarked) [Coumarin derivative 8]
[1]; 20 μM for 2 h
  NO production, Average: 32.19 µM
[1]; 40 μM for 2 h
  NO production, Average: 24.11 µM
[1]; 80 μM for 2 h
  NO production, Average (μM): 10.64 *** μM
[2]
  viability at 22 h, 20 μM: 103%
  viability at 22 h, 40 μM: 107%
  viability at 22 h, 80 μM: 93.5%

## Cc1ccccc1C1C(C#N)=C(N)Oc2c1c(=O)oc1ccccc21 (centres unmarked) [Coumarin derivative 9]
[1]; 20 μM for 2 h
  NO production, Average: 23.27 µM
[1]; 40 μM for 2 h
  NO production, Average: 24.10 µM
[1]; 80 μM for 2 h
  NO production, Average: 21.32 µM
[1]
  Anti-inflammatory effect (inhibition of NO secretion), in words: almost no anti-inflammatory effect
[2]
  viability at 22 h, 20 μM: 118%
  viability at 22 h, 40 μM: 111%
  viability at 22 h, 80 μM: 112%

## Cc1cccc(C2C(C#N)=C(N)Oc3c2c(=O)oc2ccccc32)c1 (centres unmarked) [Coumarin derivative 10]
[1]; 20 μM for 2 h
  NO production, Average: 24.24 µM
[1]; 40 μM for 2 h
  NO production, Average (μM): 20.34 ** μM
[1]; 80 μM for 2 h
  NO production, Average (μM): 9.21 *** μM
[1]
  Anti-inflammatory effect (inhibition of NO secretion), in words: inhibited NO secretion in a concentration-dependent manner
[2]
  viability at 22 h, 20 μM: 111%
  viability at 22 h, 40 μM: 113%
  viability at 22 h, 80 μM: 104%

## Cc1ccc(C2C(C#N)=C(N)Oc3c2c(=O)oc2ccccc32)cc1 (centres unmarked) [Coumarin derivative 11]
[1]; 20 μM for 2 h
  NO production, Average: 24.80 µM
[1]; 40 μM for 2 h
  NO production, Average: 26.47 µM
[1]; 80 μM for 2 h
  NO production, Average: 26.19 µM
[2]
  viability at 22 h, 20 μM: 113%
  viability at 22 h, 40 μM: 108%
  viability at 22 h, 80 μM: 122%

## N#CC1=C(N)Oc2c(c(=O)oc3ccccc23)C1c1ccccc1OC(F)(F)F (centres unmarked) [Coumarin derivative 12]
[1]; 20 μM for 2 h
  NO production, Average: 16.58 µM
[1]; 40 μM for 2 h
  NO production, Average (μM): 17.28 *** μM
[1]; 80 μM for 2 h
  NO production, Average (μM): 17.98 *** μM
[1]
  Anti-inflammatory effect (inhibition of NO secretion), in words: showed anti-inflammatory effects
[2]
  viability at 22 h, 20 μM: 99.2%
  viability at 22 h, 40 μM: 102%
  viability at 22 h, 80 μM: 106%

## N#CC1=C(N)Oc2c(c(=O)oc3ccccc23)C1c1cccc(OC(F)(F)F)c1 (centres unmarked) [Coumarin derivative 13]
[1]; 20 μM for 2 h
  NO production, Average: 27.17 µM
[1]; 40 μM for 2 h
  NO production, Average: 26.33 µM
[1]; 80 μM for 2 h
  NO production, Average: 24.94 µM
[1]
  Anti-inflammatory effect (inhibition of NO secretion), in words: almost no anti-inflammatory effects
[2]
  viability at 22 h, 20 μM: 114%
  viability at 22 h, 40 μM: 118%
  viability at 22 h, 80 μM: 112%

## N#CC1=C(N)Oc2c(c(=O)oc3ccccc23)C1c1ccc(OC(F)(F)F)cc1 (centres unmarked) [Coumarin derivative 14]
[1]; 20 μM for 2 h
  NO production, Average: 27.72 µM
[1]; 40 μM for 2 h
  NO production, Average: 24.52 µM
[1]; 80 μM for 2 h
  NO production, Average (μM): 16.31 *** μM
[1]
  Anti-inflammatory effect (inhibition of NO secretion), in words: weak anti-inflammatory effects at high concentrations
[2]
  viability at 22 h, 20 μM: 110%
  viability at 22 h, 40 μM: 95.8%
  viability at 22 h, 80 μM: 102%

## COc1ccccc1C1C(C#N)=C(N)Oc2c1c(=O)oc1ccccc21 (centres unmarked) [Coumarin derivative 15]
[1]; 20 μM for 2 h
  NO production, Average: 26.33 µM
[1]; 40 μM for 2 h
  NO production, Average: 22.71 µM
[1]; 80 μM for 2 h
  NO production, Average (μM): 19.37 ** μM
[1]
  Anti-inflammatory effect (inhibition of NO secretion), in words: showed anti-inflammatory effects
[2]
  viability at 22 h, 20 μM: 109%
  viability at 22 h, 40 μM: 112%
  viability at 22 h, 80 μM: 114%

## COc1cccc(C2C(C#N)=C(N)Oc3c2c(=O)oc2ccccc32)c1 (centres unmarked) [Coumarin derivative 16]
[1]; 20 μM for 2 h
  NO production, Average: 27.58 µM
[1]; 40 μM for 2 h
  NO production, Average: 26.33 µM
[1]; 80 μM for 2 h
  NO production, Average (μM): 16.17 *** μM
[2]
  viability at 22 h, 20 μM: 107%
  viability at 22 h, 40 μM: 102%
  viability at 22 h, 80 μM: 96.3%

## COc1ccc(C2C(C#N)=C(N)Oc3c2c(=O)oc2ccccc32)cc1 (centres unmarked) [Coumarin derivative 17]
[1]; 20 μM for 2 h
  NO production, Average: 28.68 µM
[1]; 40 μM for 2 h
  NO production, Average: 26.11 µM
[1]; 80 μM for 2 h
  NO production, Average (μM): 20.16 ** μM
[1]
  Anti-inflammatory effect (inhibition of NO secretion), in words: weak anti-inflammatory effects at high concentrations
[2]
  viability at 22 h, 20 μM: 122%
  viability at 22 h, 40 μM: 122%
  viability at 22 h, 80 μM: 137%

## N#CC1=C(N)Oc2c(c(=O)oc3ccccc23)C1c1ccccc1Br (centres unmarked) [Coumarin derivative 18]
[1]; 20 μM for 2 h
  NO production, Average: 28.03 µM
[1]; 40 μM for 2 h
  NO production, Average: 27.87 µM
[1]; 80 μM for 2 h
  NO production, Average: 25.95 µM
[1]
  Anti-inflammatory effect (inhibition of NO secretion), in words: almost no anti-inflammatory effect
[2]
  viability at 22 h, 20 μM: 129%
  viability at 22 h, 40 μM: 130%
  viability at 22 h, 80 μM: 138%
